Like-named read-outs stand apart in the source and are kept apart here.
Key:
[1] = dog, in vivo, po, 25 mg/kg
Protocol: (§1) For each of ulipristal acetate samples obtained in Examples and Comparative Example, the absorption test was performed as follows. The ulipristal acetate was filled into a gelatin capsule shell (manufacturer: Qualicaps Co., Ltd., size: No. 00, lot: C0079A) to produce a capsule. The capsule was orally administered to 6 female dogs at a dose of 25 mg/kg (in terms of ulipristal acetate). The blood was collected 0.5, 1, 2, 4, 6, 24, and 48 hours after the oral administration. Then the sample was centrifuged to give a plasma. The concentration of the ulipristal acetate in the plasma was measured by a LC-MS/MS (liquid chromatography-tandem mass spectrometry) method, and the elimination half-life (T112), the time to the maximum plasma concentration (Tmax), the maximum plasma concentration (Cmax), the area under the plasma concentration-time curve (AUC), and the mean residence time (MRT) were calculated. The capsule was administered to each female dog twice at dosing intervals (washout period) of one week by crossover method.

[2] = Absorption test in dog; details: female dogs, oral capsule, 25 mg/kg
Protocol: as §1

[3] = Solubility in ethanol/water (10/90) mixed solvent at 37° C.; details: ethanol/water (volume ratio)=10/90, 37° C., stirred 5 minutes, HPLC
Protocol: [Solubility] For each of ulipristal acetate samples obtained in Examples and Comparative Example, the solubility was determined as follows. The ulipristal acetate (40 mg) was added to 40 mL of a mixed solvent containing ethanol and water [ethanol/water (volume ratio)=10/90] having a temperature of 37° C. to prepare a test sample. The test sample was stirred by a magnetic stirrer for 5 minutes. Then a portion of the suspension was separated. The solid of the separated portion was filtered out, and the ulipristal acetate content of the residue was quantitatively determined using a high-performance liquid chromatography (column: ODS, column temperature: 40° C., eluate: 0.1% trifluoroacetic acid aqueous solution/acetonitrile mixture (volume ratio 3:2), rate of flow: 1.0 mL/minute, detection: UV 302 nm), and the solubility was calculated.

Structure (SMILES)	AUC0-inf [1] [ng·h/mL]	AUC0-t [1] [ng·h/mL]	Cmax [1] [ng/mL]	MRTinf [1] [h]	MRTlast [1] [h]	T1/2 [1] [h]	Tmax [1] [h]	AUC0-inf ([2]; plasma, LC-MS/MS) [ng·h/mL]	AUC0-t ([2]; plasma, LC-MS/MS) [ng·h/mL]	Cmax ([2]; plasma, LC-MS/MS) [ng/mL]	MRTinf ([2]; plasma, LC-MS/MS) [h]	MRTlast ([2]; plasma, LC-MS/MS) [h]	T1/2 ([2]; plasma, LC-MS/MS) [h]	Tmax ([2]; plasma, LC-MS/MS) [h]	Pharmacokinetics compared with Comparative Example (in words) ([2]; summary of Table 5)	Solubility [3] [µg/mL]
CC(=O)O[C@]1(C(C)=O)CCC2C3CCC4=CC(=O)CCC4=C3[C@@H](c3ccc(N(C)C)cc3)C[C@@]21C (stereo partly drawn) [Comparative Example, 17alpha-acetoxy-11beta-(4-N,N-dimethylaminophenyl)-19-norpregna-4,9-diene-3,20-dione]	9390.7	8447.4	1490.7	16.6	11.8	14.9	1.8									
CC(=O)O[C@]1(C(C)=O)CCC2C3CCC4=CC(=O)CCC4=C3[C@@H](c3ccc(N(C)C)cc3)C[C@@]21C (stereo partly drawn) [Example 1, 17alpha-acetoxy-11beta-(4-N,N-dimethylaminophenyl)-19-norpregna-4,9-diene-3,20-dione]								18078.4	12194.3	2200.2	37.7	11.7	37.3	1.2	excellent pharmacokinetics	11.2

— patent US9643993B2, “Crystalline polymorphic form of ulipristal acetate” (ASKA PHARMACEUTICAL CO., LTD., priority 2012, dated 2017)
